Data published in patent US11814364B2, “Pyridine N-oxide derivatives useful as factor XIa inhibitors” (Janssen Pharmaceutica NV, priority 2021, dated 2023).
Where a SMILES comes first, the peptide text is derived from it. The star is where a group is joined. AMC = Cc1cc(=O)oc2cc(N*)ccc12; Cbz = O=C(OCc1ccccc1)*

target: human plasma kallikrein (Homo sapiens, UniProt P03952); test: Kallikrein inhibition FLINT assay with quenched AMC peptide substrate Z-Gly-Pro-Arg-AMC (end point EP or kinetic KIN reads); type: biochemical; details: kinetic reads at 5 min intervals over 30 min; read-out: Kallikrein (KIN) IC50
How it was run: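 Enzyme and compound were preincubated 30 min before adding 50 μM AMC substrate in pH 7.5 Tris/NaCl/CaCl2/BSA/CHAPS buffer. AMC release was read at 30 min endpoint or every 5 min.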

Sequence of human plasma kallikrein (P03952 391-638 limits assumed): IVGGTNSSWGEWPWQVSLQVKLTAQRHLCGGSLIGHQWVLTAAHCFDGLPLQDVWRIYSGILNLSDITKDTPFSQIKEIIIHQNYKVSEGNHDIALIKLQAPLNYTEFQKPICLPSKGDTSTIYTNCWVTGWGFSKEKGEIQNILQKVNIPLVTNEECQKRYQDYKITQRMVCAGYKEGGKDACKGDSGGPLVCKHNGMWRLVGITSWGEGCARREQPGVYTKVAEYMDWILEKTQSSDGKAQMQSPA
Sequence of human plasma kallikrein (P03952 20-390 partner limits assumed): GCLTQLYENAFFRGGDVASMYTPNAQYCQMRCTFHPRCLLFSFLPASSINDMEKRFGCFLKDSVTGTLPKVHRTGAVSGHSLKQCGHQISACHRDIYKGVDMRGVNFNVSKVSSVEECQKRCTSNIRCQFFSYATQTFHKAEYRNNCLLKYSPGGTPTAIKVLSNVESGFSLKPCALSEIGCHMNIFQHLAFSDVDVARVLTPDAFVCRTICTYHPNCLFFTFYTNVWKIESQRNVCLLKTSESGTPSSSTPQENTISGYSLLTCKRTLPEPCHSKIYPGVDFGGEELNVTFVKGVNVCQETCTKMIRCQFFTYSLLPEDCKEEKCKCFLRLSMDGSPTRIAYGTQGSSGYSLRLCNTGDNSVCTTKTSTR

Point of comparison: `NC(=O)c1ccc(-c2cnn(C(Cc3ccn(C(F)F)n3)c3ccc(-c4c(-n5cc(C(F)(F)F)nn5)ccc(Cl)c4F)c[n+]3[O-])c2)cc1F` (stereo not shown) [Example P952], IC50 2.3 nM. Against it:
- [2H]C([2H])(C[C@H](c1ccc(-c2c(-n3cnnn3)ccc(Cl)c2F)c[n+]1[O-])n1cc(-c2cn(C)nc2Cl)cn1)OC(F)F [Example P850] — 1.6-fold lower, 1.4 nM
- N#Cc1cc(-c2cnn(C(CN3CCCC3=O)c3ccc(-c4c(-n5cnnn5)ccc(Cl)c4F)c[n+]3[O-])c2)ccn1 (stereo not shown) [Example P461] — 14-fold higher, 32.5 nM
- O=C(O)c1cc(-c2cnn(C(CC3CC3)c3ccc(-c4c(C(F)F)ccc(Cl)c4F)c[n+]3[O-])c2)c[nH]1 (stereo not shown) [Example Q24] — 250-fold higher, 578 nM
- COC(=O)Nc1ccc(-c2cnn(C(Cc3ccc(Cl)cc3)c3ccc(-c4c(-n5cnnn5)ccc(Cl)c4F)c[n+]3[O-])c2)cc1 (single isomer, unassigned) [Example P159] — 93-fold higher, 215 nM
- [O-][n+]1cc(-c2c(-n3cnnn3)ccc(Cl)c2F)ccc1C(Cn1cccn1)n1cc(-c2ccnc(C(F)(F)F)c2)cn1 (single isomer, unassigned) [Example P514] — 32-fold higher, 72.9 nM
- [O-][n+]1ccc(-c2cnn(C(Cn3cc(F)cn3)c3ccc(-c4c(-n5cnnn5)ccc(Cl)c4F)c[n+]3[O-])c2)cc1C(F)F (single isomer, unassigned) [Example P406] — 12-fold higher, 27.6 nM
- CCC(c1ccc(-c2c(-n3cnnn3)ccc(Cl)c2F)c[n+]1[O-])n1cc(-c2ccc(NC(=O)OC)cc2)cn1 (single isomer, unassigned) [Example P155] — 37-fold higher, 86.1 nM
- [O-][n+]1cc(-c2c(-n3cc(Cl)nn3)ccc(Cl)c2F)ccc1[C@@H](CCOC(F)F)n1cc(-c2cnn(C(F)F)n2)cn1 [Example P666] — 92-fold higher, 212 nM
- CN(CC(c1ccc(-c2c(-n3cnnn3)ccc(Cl)c2F)c[n+]1[O-])n1cc(-c2cc[n+]([O-])cc2)cn1)C(=O)Cc1ccccc1 (stereo not shown) [Example P345] — 66-fold higher, 152 nM
- [O-][n+]1cc(F)c(-c2cnn(C(CC3CC3)c3ccc(-c4c(-n5cnnn5)ccc(Cl)c4F)c[n+]3[O-])c2)c(Cl)c1 (single isomer, unassigned) [Example P862] — 64-fold higher, 148 nM
- O=C(O)c1ccc(-c2cnn(C(Cc3ccn(C(F)F)n3)c3ccc(-c4c(C(F)F)ccc(Cl)c4F)c[n+]3[O-])c2)cc1F (single isomer, unassigned) [Example Q64] — 2-fold higher, 4.7 nM
- Cc1cc(-c2cnn(C(Cn3cccn3)c3ccc(-c4c(-n5cnnn5)ccc(Cl)c4F)c[n+]3[O-])c2)ccn1 (stereo not shown) [Example P310] — 3.9-fold higher, 9 nM
- O=C(O)c1ccc(-c2cnn(C(CC3CC3C(=O)N3CCC(c4ccccc4)C3)c3ccc(-c4cc(Cl)ccc4-n4cnnn4)c[n+]3[O-])c2)cc1 (single isomer, unassigned) [Example P99] — 1000-fold higher, 2370 nM
- [O-][n+]1cc(-c2cc(Cl)ccc2-n2cnnn2)ccc1C(Cc1ccc(Cl)cc1)n1cc(-c2cc(Cl)ccc2-n2cnnn2)cn1 (stereo not shown) [Example P152] — 390-fold higher, 895 nM
- Cc1cc(-c2cnn(C(Cn3cc(F)cn3)c3ccc(-c4c(-n5cnnn5)ccc(Cl)c4F)c[n+]3[O-])c2)cc(C)[n+]1[O-] (stereo not shown) [Example P477] — 82-fold higher, 188 nM
- CN(CC(c1ccc(-c2c(-n3cnnn3)ccc(Cl)c2F)c[n+]1[O-])n1cc(-c2ccnc(F)c2)cn1)C(=O)C(C)(C)C (stereo not shown) [Example P426] — 23-fold higher, 53.6 nM
- [O-][n+]1cc(-c2c(-n3cnnn3)ccc(Cl)c2F)ccc1C(CC1CC1)n1cc(-c2ccc3c(c2)OCCO3)cn1 (stereo not shown) [Example P271] — 110-fold higher, 252 nM
- O=C(O)C1CCCN(C(=O)C2CC2CC(c2ccc(-c3c(-n4cnnn4)ccc(Cl)c3F)c[n+]2[O-])n2cc(-c3ccccc3)cn2)C1 (stereo not shown) [Example P224] — 260-fold higher, 591 nM
- [O-][n+]1cc(-c2c(-n3cnnn3)ccc(Cl)c2F)ccc1C(CCOC(F)F)n1cc(-c2cn(C(F)F)nn2)cn1 (single isomer, unassigned) [Example P660] — 120-fold higher, 287 nM
- [O-][n+]1cc(-c2cc(Cl)ccc2-n2cnnn2)ccc1C(Cc1ccc(Cl)cc1)n1cc(-c2ccnc(F)c2)cn1 (stereo not shown) [Example P210] — 9.9-fold higher, 22.8 nM
- COC(=O)Nc1ccc(-c2cnn(C(Cc3cccc(OC)c3)c3ccc(-c4c(-n5cnnn5)ccc(Cl)c4F)c[n+]3[O-])c2)cc1 (single isomer, unassigned) [Example P206] — 60-fold higher, 137 nM
- COc1cc(C(Cc2ccn(C(F)F)n2)n2cc(-c3ccc(C(N)=O)c(F)c3)cn2)[n+]([O-])cc1-c1cc(Cl)ccc1C(C)=O (single isomer, unassigned) [Example Q78] — 220-fold higher, 510 nM
- O=C(Nc1ccnc(F)c1-c1cnn(C(Cc2ccc(F)cc2)c2ccc(-c3c(-c4cnco4)ccc(Cl)c3F)c[n+]2[O-])c1)C1CC1 (stereo not shown) [Example P148] — 150-fold higher, 350 nM
- Cn1ncnc1-c1cnn(C(CCOC(F)F)c2ccc(-c3c(-n4nncc4OC(F)F)ccc(Cl)c3F)c[n+]2[O-])c1 (single isomer, unassigned) [Example P800] — 27-fold higher, 62.7 nM
- [O-][n+]1cc(-c2cc(Cl)ccc2-n2cnnn2)ccc1C(Cn1cccn1)n1cc(-c2ccnc(C3CC3)c2)cn1 (stereo not shown) [Example P286] — 10-fold higher, 23 nM
- Cn1nnc(F)c1-c1cnn(C(CC2CC2)c2ccc(-c3c(-n4cnnn4)ccc(Cl)c3F)c[n+]2[O-])c1 (stereo not shown) [Example P744] — 21-fold higher, 48.9 nM
- Cn1nccc1-c1cnn(C(Cn2cc(F)cn2)c2ccc(-c3c(-n4cnnn4)ccc(Cl)c3F)c[n+]2[O-])c1 (stereo not shown) [Example P503] — 5.8-fold higher, 13.4 nM
- O=C(O)c1ccc(-c2cnn(C(CC3OCCc4ccccc43)c3ccc(-c4cc(Cl)ccc4-n4cnnn4)c[n+]3[O-])c2)cc1 (stereo not shown) [Example P128] — 210-fold higher, 475 nM
- COC(=O)Nc1ccc(-c2cnn(C(Cc3cccc(OC)c3)c3ccc(-c4c(-n5cnnn5)ccc(Cl)c4F)c[n+]3[O-])c2)cc1 (single isomer, unassigned) [Example P207] — within 1.5-fold, 2.9 nM
- COCc1ccnn1CC(c1ccc(-c2c(-n3cnnn3)ccc(Cl)c2F)c[n+]1[O-])n1cc(-c2ccc(N)nc2F)cn1 (stereo not shown) [Example P489] — 25-fold higher, 57.9 nM
- NC(=O)C1CC1CC(c1ccc(-c2c(-n3cnnn3)ccc(Cl)c2F)c[n+]1[O-])n1cc(-c2ccncc2)cn1 (stereo not shown) [Example P260] — 32-fold higher, 72.5 nM
- Cn1ncnc1-c1cnn([C@H](CCOC(F)F)c2ccc(-c3c(-n4cnnn4)ccc(Cl)c3F)c[n+]2[O-])c1 [Example P550] — 7.8-fold higher, 18 nM
- [O-][n+]1cc(-c2c(-n3cnnn3)ccc(Cl)c2F)ccc1[C@@H](Cc1ccc(F)cc1)n1cc(-c2cn(C(F)F)nn2)cn1 [Example P600] — 19-fold higher, 43.8 nM
- CC(C)C(=O)N(C)CC(c1ccc(-c2c(-n3cnnn3)ccc(Cl)c2F)c[n+]1[O-])n1cc(-c2ccnc(F)c2)cn1 (stereo not shown) [Example P418] — 24-fold higher, 55.6 nM
- CCOc1cc(C(CC2CC2)n2cc(-c3ccncc3)cn2)[n+]([O-])cc1-c1c(-n2cnnn2)ccc(Cl)c1F (stereo not shown) [Example P251] — within 1.5-fold, 2.5 nM
- [2H]C([2H])(C[C@H](c1ccc(-c2c(-n3cc(C(F)(F)F)nn3)ccc(Cl)c2F)c[n+]1[O-])n1cc(-c2ncnn2C)cn1)OC(F)F [Example P820] — 30-fold higher, 68.8 nM
- [O-][n+]1cc(-c2c(-n3cnnn3)ccc(Cl)c2F)ccc1C(Cn1cc(F)cn1)n1cc(-c2ccnn2C(F)F)cn1 (single isomer, unassigned) [Example P644] — 6.3-fold higher, 14.5 nM
- [O-][n+]1ccc(-c2cnn(C(Cn3cccn3)c3ccc(-c4c(-n5cnnn5)ccc(Cl)c4F)c[n+]3[O-])c2)cc1C(F)F (single isomer, unassigned) [Example P339] — 290-fold higher, 670 nM
- [O-][n+]1cc(-c2c(-n3cnnn3)ccc(Cl)c2F)ccc1C(Cn1cc(-c2ccccn2)cn1)n1cc(-c2ccccn2)cn1 (single isomer, unassigned) [Example P516] — 60-fold higher, 139 nM
- O=C1c2ccccc2CN1CC(c1ccc(-c2cc(Cl)ccc2-n2cnnn2)c[n+]1[O-])n1cc(-c2ccncc2)cn1 (stereo not shown) [Example P293] — 29-fold higher, 67.6 nM
- O=C(O)c1ccc(-c2cnn(C(CC3CC3c3ccc(-c4ccccc4)cc3)c3ccc(-c4cc(Cl)ccc4-n4cnnn4)c[n+]3[O-])c2)cc1 (stereo not shown) [Example P61] — 23-fold higher, 51.9 nM
- [O-][n+]1ccc(-c2cnn(C(Cc3ccc(F)cc3)c3ccc(-c4c(-n5cnnn5)ccc(Cl)c4F)c[n+]3[O-])c2)cc1 (single isomer, unassigned) [Example P238] — 3.3-fold lower, 0.7 nM
- [O-][n+]1cc(-c2c(-n3cnnn3)ccc(Cl)c2F)ccc1C(CC1CC1)n1cc(-c2cnnn2C2CC2)cn1 (stereo not shown) [Example P524] — 190-fold higher, 428 nM
- [O-][n+]1cc(-c2cc(Cl)ccc2-n2cnnn2)ccc1C(Cc1ccc(Cl)cc1)n1cc(-c2ccncc2)cn1 (stereo not shown) [Example P171] — 6.7-fold higher, 15.3 nM
- O=C(NC1CC1)c1ccc(-c2cnn(C(CC3CCCCO3)c3ccc(-c4c(-n5cnnn5)ccc(Cl)c4F)c[n+]3[O-])c2)cc1 (single isomer, unassigned) [Example P80] — 23-fold higher, 53.3 nM
- Cn1nnc(F)c1-c1cnn(C(CC2CC2)c2ccc(-c3c(-n4cnnn4)ccc(Cl)c3F)c[n+]2[O-])c1 (stereo not shown) [Example P743] — higher, > 100 nM
- COc1cc(C(CC2CC2)n2cc(-c3cnn(C)c(=O)c3)cn2)[n+]([O-])cc1-c1c(-n2cnnn2)ccc(Cl)c1F (stereo not shown) [Example P66] — 9-fold higher, 20.6 nM
- [2H]C([2H])(C[C@H](c1ccc(-c2c(-n3cc(C(F)(F)F)nn3)ccc(Cl)c2F)c[n+]1[O-])n1cc(-c2ncnn2C)cn1)OC(F)F [Example P834] — 30-fold higher, 68 nM
- Nc1cnc(-c2cnn(C(CCOC(F)F)c3ccc(-c4c(-n5cc(C(F)(F)F)nn5)ccc(Cl)c4F)c[n+]3[O-])c2)c(F)n1 (single isomer, unassigned) [Example P833] — 27-fold higher, 62.7 nM
- Cn1nnc(F)c1-c1cnn([C@H](Cc2ccc(C(F)(F)F)nc2)c2ccc(-c3c(-n4cnnn4)ccc(Cl)c3F)c[n+]2[O-])c1 [Example P780] — 7.7-fold higher, 17.7 nM
- [O-][n+]1ccc(-c2cnn(C(CC3CC3)c3ccc(-c4c(-n5cnnn5)ccc(Cl)c4F)c[n+]3[O-])c2)cn1 (stereo not shown) [Example P398] — 320-fold higher, 730 nM
- CCCC(c1ccc(-c2c(-n3cnnn3)ccc(Cl)c2F)c[n+]1[O-])n1cc(-c2ccc(NC(=O)OC)cc2)cn1 (stereo not shown) [Example P156] — 38-fold higher, 86.7 nM

same assay, conditions: peptide substrate of kallikrein; titration data fit to Michaelis-Menten equation

`Cc1cc(=O)oc2cc(NC(=O)[C@H](CCCNC(=N)N)NC(=O)[C@@H]3CCCN3C(=O)CNC(=O)OCc3ccccc3)ccc12` [Z-Gly-Pro-Arg-AMC, reference compound] (Cbz-Gly-Pro-Arg-{AMC}) gave a Km of 40 µM.

Work on `Cc1cc(=O)oc2cc(NC(=O)[C@H](CCCNC(=N)N)NC(=O)[C@@H]3CCCN3C(=O)CNC(=O)OCc3ccccc3)ccc12` [Z-Gly-Pro-Arg-AMC, reference compound] (Cbz-Gly-Pro-Arg-{AMC}) yielded a kcat of 0.76 s⁻¹.
